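Each compound was tested at five concentrations against cells in 96-well plates for 48 hours. The concentration for full growth arrest is given as TGI.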
What was measured:
Test in all cases: inhibition of tumour cell growth, NCI panel, 48 h
[1] = tested on: A549 NSCLC
[2] = tested on: RXF-631 renal
[3] = tested on: UO-31 renal
[4] = tested on: XF 498 CNS
[5] = tested on: KM12 colon
[6] = tested on: SF-539 CNS
[7] = tested on: HOP-92 NSCLC
[8] = tested on: NCI-H460 lung
[9] = tested on: IGROV1 ovarian
[10] = tested on: TK-10 renal
[11] = tested on: UACC-257 melanoma
[12] = tested on: SW-620 colon
[13] = tested on: HCT-116 colon
[14] = tested on: HT29 colon
[15] = tested on: SNB-75 CNS
[16] = tested on: OVCAR-8 ovarian
[17] = tested on: M14 melanoma
[18] = tested on: HOP-18 NSCLC
[19] = tested on: HOP-62 NSCLC
[20] = tested on: SK-MEL-5 melanoma
[21] = tested on: RXF 393 renal
[22] = tested on: HCC-2998 colon
[23] = tested on: SF-295 CNS
[24] = tested on: SN12C renal
[25] = tested on: NCI-H522 lung
[26] = tested on: RPMI-8226 leukemia
[27] = tested on: MALME-3M melanoma
[28] = tested on: ACHN renal
[29] = tested on: SK-OV-3 ovarian
[30] = tested on: SNB-19 CNS
[31] = tested on: NCI-H226 lung
[32] = tested on: K-562 leukemia
[33] = tested on: OVCAR-5 ovarian
[34] = tested on: OVCAR-3 ovarian
[35] = tested on: MOLT-4 leukemia
[36] = tested on: SK-MEL-28 melanoma
[37] = tested on: DMS 114 small cell lung
[38] = tested on: NCI-H23 lung
[39] = tested on: HL-60(TB) leukemia
[40] = tested on: LXFL 529 NSCLC
[41] = tested on: M19-MEL melanoma
[42] = tested on: DLD-1 colon
[43] = tested on: LOX IMVI melanoma
[44] = tested on: EKVX NSCLC
[45] = tested on: COLO 205 colon
[46] = tested on: CCRF-CEM leukemia
[47] = tested on: OVCAR-4 ovarian
[48] = tested on: KM20L2 colon
[49] = tested on: 786-0 renal
[50] = tested on: UACC-62 melanoma
[51] = tested on: SK-MEL-2 melanoma
[52] = tested on: HCT-15 colon
[53] = tested on: SNB-78 CNS
[54] = tested on: SF-268 CNS
[55] = tested on: DMS 273 small cell lung
[56] = tested on: A498 renal
[57] = tested on: SR leukemia
[58] = tested on: U251 CNS
[59] = tested on: CAKI-1 renal

With `O=c1[nH]c2cc(Cl)ccc2nc1/C(=N\O)C(O)c1cccc([N+](=O)[O-])c1` (centres undefined) as the compound, how does the TGI [1] read?
The TGI was over 100 µM.

And the TGI [2]?
The TGI was over 100 µM.

What about the TGI [3] of the same compound?
Its TGI is over 100 µM.

And the TGI [4]?
The TGI was over 100 µM.

And the TGI [5]?
The TGI was over 100 µM.

What about the TGI [6] of the same compound?
Its TGI is over 100 µM.

And the TGI [7]?
Its TGI is over 100 µM.

What about the TGI [8] of the same compound?
The TGI was over 100 µM.

And the TGI [9]?
Its TGI is over 100 µM.

And the TGI [10]?
Its TGI is over 100 µM.

And the TGI [11]?
The TGI was over 100 µM.

And the TGI [12]?
Its TGI is over 100 µM.

What about the TGI [13] of the same compound?
Its TGI is over 100 µM.

What about the TGI [14] of the same compound?
Its TGI is over 100 µM.

And the TGI [15]?
Its TGI is over 100 µM.

And the TGI [16]?
Its TGI is over 100 µM.

And the TGI [17]?
Its TGI is over 100 µM.

What about the TGI [18] of the same compound?
Its TGI is over 100 µM.

What about the TGI [19] of the same compound?
Its TGI is over 100 µM.

And the TGI [20]?
Its TGI is over 100 µM.

What about the TGI [21] of the same compound?
The TGI was over 100 µM.

And the TGI [22]?
The TGI was over 100 µM.

And the TGI [23]?
Its TGI is over 100 µM.

What about the TGI [24] of the same compound?
The TGI was over 100 µM.

What about the TGI [25] of the same compound?
Its TGI is over 100 µM.

What about the TGI [26] of the same compound?
The TGI was over 100 µM.

And the TGI [27]?
The TGI was over 100 µM.

And the TGI [28]?
Its TGI is over 100 µM.

And the TGI [29]?
Its TGI is over 100 µM.

What about the TGI [30] of the same compound?
The TGI was over 100 µM.

And the TGI [31]?
Its TGI is over 100 µM.

What about the TGI [32] of the same compound?
The TGI was over 100 µM.

And the TGI [33]?
Its TGI is over 100 µM.

And the TGI [34]?
The TGI was over 100 µM.

And the TGI [35]?
Its TGI is over 100 µM.

And the TGI [36]?
The TGI was over 100 µM.

What about the TGI [37] of the same compound?
The TGI was over 100 µM.

What about the TGI [38] of the same compound?
Its TGI is over 100 µM.

And the TGI [39]?
Its TGI is over 100 µM.

And the TGI [40]?
Its TGI is over 100 µM.

And the TGI [41]?
The TGI was over 100 µM.

What about the TGI [42] of the same compound?
Its TGI is over 100 µM.

What about the TGI [43] of the same compound?
Its TGI is over 100 µM.

And the TGI [44]?
Its TGI is over 100 µM.

What about the TGI [45] of the same compound?
The TGI was over 100 µM.

What about the TGI [46] of the same compound?
The TGI was over 100 µM.

What about the TGI [47] of the same compound?
The TGI was over 100 µM.

And the TGI [48]?
The TGI was over 100 µM.

And the TGI [49]?
Its TGI is over 100 µM.

And the TGI [50]?
The TGI was over 100 µM.

What does the source list for `c1ccc2c(c1)cc(C1NCCc3[nH]cnc31)c1ccccc12` (centres undefined)?
TGI [1]: > 100 µM; TGI [2]: > 100 µM; TGI [3]: > 100 µM; TGI [4]: 79 µM; TGI [5]: > 100 µM; TGI [6]: > 59.9 µM; TGI [51]: 36.5 µM; TGI [52]: > 100 µM; TGI [7]: > 95.6 µM; TGI [8]: > 53.6 µM; TGI [9]: > 100 µM; TGI [53]: > 100 µM; TGI [10]: > 100 µM; TGI [11]: > 68.3 µM; TGI [12]: > 60.5 µM; TGI [13]: 42.7 µM; TGI [54]: > 100 µM; TGI [14]: > 100 µM; TGI [15]: > 100 µM; TGI [16]: > 100 µM; TGI [17]: 36.7 µM; TGI [18]: > 100 µM; TGI [19]: > 88.6 µM; TGI [20]: > 69.8 µM; TGI [55]: 87.9 µM; TGI [21]: 85.6 µM; TGI [22]: 21.8 µM; TGI [23]: > 100 µM; TGI [24]: > 100 µM; TGI [56]: 50 µM; TGI [25]: > 68.5 µM; TGI [26]: > 78.4 µM; TGI [27]: > 100 µM; TGI [28]: > 61.9 µM; TGI [29]: > 100 µM; TGI [30]: > 100 µM; TGI [31]: > 68.1 µM; TGI [32]: 41.1 µM; TGI [33]: > 100 µM; TGI [34]: > 100 µM; TGI [35]: 61.7 µM; TGI [36]: > 65.5 µM; TGI [37]: > 64.3 µM; TGI [38]: > 100 µM; TGI [39]: > 100 µM; TGI [40]: > 63.5 µM; TGI [41]: > 59.5 µM; TGI [42]: > 100 µM; TGI [43]: 40.7 µM; TGI [44]: > 100 µM; TGI [57]: 61.1 µM; TGI [45]: 26.4 µM; TGI [46]: > 67.9 µM; TGI [47]: > 86.8 µM; TGI [48]: > 100 µM; TGI [58]: > 57.7 µM; TGI [49]: > 60.8 µM; TGI [50]: > 51.1 µM; TGI [59]: > 100 µM

Source: PubChem BioAssay (NCI)
